Test results as given in patent US20250171462A1 (NICO Therapeutics, Inc., priority 2022, published 2025).
Like-named read-outs stand apart in the source and are kept apart here.

Target: T1, full-length SARM1 (FL-SARM1) (Homo sapiens, UniProt Q6SZW1)
T1 sequence (Q6SZW1 28-724): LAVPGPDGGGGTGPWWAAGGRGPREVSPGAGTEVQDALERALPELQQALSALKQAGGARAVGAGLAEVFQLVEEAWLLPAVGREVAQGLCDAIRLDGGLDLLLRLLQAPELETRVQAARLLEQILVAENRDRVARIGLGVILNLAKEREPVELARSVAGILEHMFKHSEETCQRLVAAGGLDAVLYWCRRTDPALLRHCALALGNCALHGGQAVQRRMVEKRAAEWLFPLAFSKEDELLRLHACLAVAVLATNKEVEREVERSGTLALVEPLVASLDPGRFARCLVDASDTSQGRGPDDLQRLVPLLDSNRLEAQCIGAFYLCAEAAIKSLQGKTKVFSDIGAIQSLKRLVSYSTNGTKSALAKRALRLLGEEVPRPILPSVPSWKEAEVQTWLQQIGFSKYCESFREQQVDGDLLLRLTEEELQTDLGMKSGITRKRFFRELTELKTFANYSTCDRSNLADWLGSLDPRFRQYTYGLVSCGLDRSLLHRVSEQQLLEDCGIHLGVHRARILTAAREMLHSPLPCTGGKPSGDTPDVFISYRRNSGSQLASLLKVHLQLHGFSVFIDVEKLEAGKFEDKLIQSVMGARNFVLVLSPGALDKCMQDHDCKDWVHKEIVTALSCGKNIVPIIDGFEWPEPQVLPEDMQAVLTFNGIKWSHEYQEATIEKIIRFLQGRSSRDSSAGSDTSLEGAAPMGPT
Assay: FL-SARM1 cellular lysate assay (NAD/NADH-Glo detection of remaining NAD+, NMN-activated)

[1] = Activity (IC50 class), 11 point curve
[2] = Activity (μM) (IC50), 11 point curve
[3] = read-out: Activity (IC50 class), 11 point curve

| Compound | IC50 [1] [µM] | IC50 [2] [µM] | IC50 [3] [µM] |
| --- | --- | --- | --- |
| Cc1ccc(NC(=O)[C@H]2CC[C@@H](C)N2c2ccccn2)cc1-c1ncc(F)cn1 [Example 282, (2R,5R)-N-[3-(5-fluoropyrimidin-2-yl)-4-methylphenyl]-5-methyl-1-pyridin-2-ylpyrrolidine-2-carboxamide] | 1 to 10 | 1.2 |  |
| COC(C)[C@@]12CC(C[C@@H](C)C1)N2C(=O)Nc1ccc(C(F)(F)F)c(-c2nccnn2)c1 (single isomer, unassigned) [Example 210, cis-N-(3-(1,2,4-triazin-3-yl)-4-(trifluoromethyl)phenyl)-1-(1-methoxyethyl)-3-methyl-6-azabicyclo[3.1.1]heptane-6-carboxamide] | > 10 | > 50 |  |
| Cc1ccc(NC(=O)[C@H]2CC[C@@H](C)N2c2ccc(F)cn2)cc1-c1ncc(F)cn1 [Example 316] | 1 to 10 | 1.7 |  |
| CCc1ccnc(-c2cc(NC(=O)N3C4C[C@@H](C)C[C@H]3C4)ccc2C)n1 [Example 237, cis-N-[3-(4-ethylpyrimidin-2-yl)-4-methylphenyl]-3-methyl-6-azabicyclo[3.1.1]heptane-6-carboxamide] | 1 to 10 | 1.1 |  |
| Cc1ccc(NC(=O)[C@H]2C[C@@H](c3ccccc3)CN2c2ncccn2)cc1-c1ncc(F)cn1 [Example 319] | 1 to 10 | 6.7 |  |
| Cc1ccc(NC(=O)N2C[C@H]3C[C@@H]2CN3c2ccccc2)cc1-c1ccccn1 [Example 38, (1R,4R)-N-(4-methyl-3-(pyridin-2-yl)phenyl)-5-phenyl-2,5-diazabicyclo[2.2.1]heptane-2-carboxamide] | 1 to 10 | 7.7 |  |
| CCc1ccc(NC(=O)N2C3CCCC2C3)cc1-c1ccc(F)cn1 [Example 28, N-(4-ethyl-3-(5-fluoropyridin-2-yl)phenyl)-6-azabicyclo[3.1.1]heptane-6-carboxamide] |  | 0.6 | 0.0001 to 1 |
| Cc1cc(F)c(NC(=O)N2C3CCCC2C3)cc1-c1nccnn1 [Example 246, N-[2-fluoro-4-methyl-5-(1,2,4-triazin-3-yl)phenyl]-6-azabicyclo[3.1.1]heptane-6-carboxamide] | 1 to 10 | 2 |  |
| Cc1ccc(NC(=O)N2C3C[C@@H](C)C[C@H]2C3)cc1-c1cccnn1 [Example 62, cis-3-methyl-N-(4-methyl-3-pyridazin-3-yl-phenyl)-6-azabicyclo[3.1.1]heptane-6-carboxamide] |  | 0.02 | 0.0001 to 1 |
| Cc1cc(F)c(NC(=O)N2[C@@H]3C[C@@H](C)C[C@H]2C3)cc1-c1cncnn1 [Example 221, cis-N-[2-fluoro-4-methyl-5-(1,2,4-triazin-6-yl)phenyl]-3-methyl-6-azabicyclo[3.1.1]heptane-6-carboxamide] |  | 0.6 | 0.0001 to 1 |
| Cc1ccc(NC(=O)[C@@H]2CC2(F)F)cc1-c1cc(C#N)ccn1 [Example 157, (1S)-N-[3-(4-cyanopyridin-2-yl)-4-methylphenyl]-2,2-difluorocyclopropane-1-carboxamide] | > 10 | 38 |  |
| Cc1ccc(NC(=O)[C@H]2C[C@@H](OC(F)(F)F)C2)cc1-c1ccccn1 [Example 136, cis-N-(4-methyl-3-pyridin-2-ylphenyl)-3-(trifluoromethoxy)cyclobutane-1-carboxamide] | 1 to 10 | 6.4 |  |
| Cc1ccc(NC(=O)C2C3CCC2(c2ccn(C)n2)C3)cc1-c1ncc(F)cn1 (mixture of isomers) [Example 317] | 1 to 10 | 1 |  |
| Cc1ccc(NC(=O)CC2CCC2)cc1-c1ncccc1F [Example 165, 2-cyclobutyl-N-[3-(3-fluoropyridin-2-yl)-4-methylphenyl]acetamide] | 1 to 10 | 5.3 |  |
| Cc1ccc(NC(=O)[C@@H]2CC2(F)F)cc1-c1ncccc1C [Example 156, (1S)-2,2-difluoro-N-[4-methyl-3-(3-methylpyridin-2-yl)phenyl]cyclopropane-1-carboxamide] | 1 to 10 | 2.5 |  |
| Cc1ccc(NC(=O)[C@@H]2C[C@@H]2C(F)(F)F)cc1-c1ccccn1 (racemic) [Example 124, cis-N-(4-methyl-3-pyridin-2-ylphenyl)-2-(trifluoromethyl)cyclopropane-1-carboxamide] | 1 to 10 | 3.1 |  |
| Cc1ccc(NC(=O)N2C3C[C@@H]2CC[C@H]3C)cc1-c1ccccn1 (single isomer, unassigned) [Example 49, trans-2-methyl-N-(4-methyl-3-(pyridin-2-yl)phenyl)-6-azabicyclo[3.1.1]heptane-6-carboxamide] |  | 0.2 | 0.0001 to 1 |

| Compound | IC50 [1] [µM] | IC50 [2] [µM] | IC50 [3] [µM] |
| --- | --- | --- | --- |
| Cc1ccc(NC(=O)N2C3CCCC2C3)cc1-c1ncccn1 [Example 52, N-(4-methyl-3-(pyrimidin-2-yl)phenyl)-6-azabicyclo[3.1.1]heptane-6-carboxamide] |  | 0.5 | 0.0001 to 1 |
| Cc1ccc(NC(=O)C(C)(O)C2CCC2)cc1-c1ccccn1 (racemic) [Example 118, 2-cyclobutyl-2-hydroxy-N-(4-methyl-3-pyridin-2-ylphenyl)propanamide] | 1 to 10 | 6.1 |  |
| Cc1ccc(NC(=O)[C@@H]2CC2(F)F)cc1-c1ccc(Cl)cn1 [Example 160, (1S)-N-[3-(5-chloropyridin-2-yl)-4-methylphenyl]-2,2-difluorocyclopropane-1-carboxamide] | 1 to 10 | 2.5 |  |
| Cc1ccc(NC(=O)N2C3CCCC2C3)cc1-c1ccc(C(F)(F)F)nn1 [Example 61, N-(4-methyl-3-(6-(trifluoromethyl)pyridazine-3-yl)phenyl)-6-azabicyclo[3.1.1]heptane-6-carboxamide] | > 10 | 11 |  |
| Cc1ccc(NC(=O)N2C3C[C@@H](C)C[C@H]2C3)cc1-c1nncc(C(F)(F)F)n1 [Example 184, cis-3-methyl-N-(4-methyl-3-(5-(trifluoromethyl)-1,2,4-triazin-3-yl)phenyl)-6-azabicyclo[3.1.1]heptane-6-carboxamide] |  | 0.07 | 0.0001 to 1 |
| COC(=O)N1C[C@@H]2C[C@H]1CN2C(=O)Nc1ccc(C)c(-c2ccccn2)c1 [Example 1, (1S,4S)-Methyl 5-((4-methyl-3-(pyridin-2-yl)phenyl)carbamoyl)-2,5-diazabicyclo[2.2.1]heptane-2-carboxylate] | > 10 | 23 |  |
| Cc1ccc(NC(=O)C23CC(C(F)(F)F)(C2)C3)cc1-c1ccccn1 [Example 129, N-(4-methyl-3-pyridin-2-ylphenyl)-3-(trifluoromethyl)bicyclo[1.1.1] pentane-1-carboxamide] | 1 to 10 | 9.1 |  |
| O=C(Nc1ccc(Cl)c(-c2ccccn2)c1)N1C2CCCC1C2 [Example 20, N-(4-chloro-3-(pyridin-2-yl)phenyl)-6-azabicyclo[3.1.1]heptane-6-carboxamide] |  | 0.4 | 0.0001 to 1 |
| Cc1ccc(NC(=O)N2[C@@H]3C[C@@H](C)C[C@H]2C3)cc1-c1nccnc1F [Example 230, cis-N-[3-(3-fluoropyrazin-2-yl)-4-methylphenyl]-3-methyl-6-azabicyclo[3.1.1]heptane-6-carboxamide] |  | 0.04 | 0.0001 to 1 |
| Cc1ccc(NC(=O)C(C)(C)C)cc1-c1ccccn1 [Example 141, 2,2-dimethyl-N-(4-methyl-3-pyridin-2-ylphenyl)propanamide] | > 10 | 19 |  |
| CCO[C@H]1CC2C[C@H](C1)N2C(=O)Nc1ccc(C)c(-c2ccccn2)c1 [Example 79, trans-3-ethoxy-N-(4-methyl-3-(pyridin-2-yl)phenyl)-6-azabicyclo[3.1.1]heptane-6-carboxamide] | 1 to 10 | 2.8 |  |
| O=C(Nc1ccc(C(F)(F)F)c(-c2ncc(F)cn2)c1)[C@H]1C[C@H]2C[C@H]2N1c1ccccn1 [Example 301, (1R,3R,5R)-N-(3-(5-fluoropyrimidin-2-yl)-4-(trifluoromethyl)phenyl)-2-(pyridin-2-yl)-2-azabicyclo[3.1.0]hexane-3-carboxamide] | 1 to 10 | 2.1 |  |
| CO[C@@H]1C[C@H](C(=O)Nc2ccc(C)c(-c3ncc(F)cn3)c2)N(c2ncccn2)C1 [Example 324] | > 10 | 17 |  |
| Cc1ccc(NC(=O)N2C[C@@H]3C[C@H]2CN3c2ccccc2)cc1-c1ccccn1 [Example 13, (1S,4S)-N-(4-methyl-3-(pyridin-2-yl)phenyl)-5-phenyl-2,5-diazabicyclo[2.2.1]heptane-2-carboxamide] |  | 0.7 | 0.0001 to 1 |
| Cc1ccc(NC(=O)N2C3CCCC2C3)cc1-c1ncc(F)cc1F [Example 248, N-[3-(3,5-difluoropyridin-2-yl)-4-methylphenyl]-6-azabicyclo[3.1.1]heptane-6-carboxamide] |  | 0.2 | 0.0001 to 1 |
| Cc1ccc(NC(=O)C2CCC2(F)F)cc1-c1ccccn1 (racemic) [Example 111, 2,2-difluoro-N-(4-methyl-3-pyridin-2-ylphenyl)cyclobutane-1-carboxamide] | 1 to 10 | 2.8 |  |
